Measured values: patent US20240132431A1, “METHOD FOR ALKYLATING ACIDIC FUNCTIONAL GROUP” (Chugai Seiyaku Kabushiki Kaisha, priority 2021, published 2024)

Biological target: T1, Bcl-2 protein (Recombinant Human Bcl-2 Protein) (Homo sapiens, UniProt P10415)
T1 construct: purchased Novus NBP2-34889
Assay: Binding evaluation of mixture library compounds to Bcl-2 using AS-MS (affinity selection mass spectrometry)
Conditions: for ASMS ratio (%) n = 1 / ASMS ratio (%) n = 2: ASMS Ratio(%)=(A−C)/B×100; for ASMS ratio (%) n = 1: replicate n = 1; for ASMS ratio (%) n = 2: replicate n = 2
Procedure, shortened: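 Affinity selection MS: Bcl-2 20 μM + 1200-cpd mixture, […]/cpd, Tris pH 7.4 buffer w/ Tween-20, DTT; 1 h 23° C dark; P-2 spin SEC; MeCN/MeOH extraction; RP LC/MS. ASMS Ratio(%) = (A−C)/B×100.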

[1] = AS-MS on the mixture of 1200 library compounds
[2] = AS-MS, mixture of 1200 compounds, Bcl-2

T1 sequence (P10415 whole entry): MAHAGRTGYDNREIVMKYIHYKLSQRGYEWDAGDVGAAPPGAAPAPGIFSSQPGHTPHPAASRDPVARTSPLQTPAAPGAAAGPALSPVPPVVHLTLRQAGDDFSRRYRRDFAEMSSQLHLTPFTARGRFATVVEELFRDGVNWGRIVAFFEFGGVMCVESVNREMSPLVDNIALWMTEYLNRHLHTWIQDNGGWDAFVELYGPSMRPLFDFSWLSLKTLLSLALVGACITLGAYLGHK

CCOc1cccc(-c2csc(C(=O)N3CCN(c4ccc(C(=O)Nc5ccc(OC)cc5)cc4)CC3)c2)c1 [B1O023-01, 4-[4-[4-(3-Ethoxyphenyl)thiophene-2-carbonyl]piperazin-1-yl]-N-(4-methoxyphenyl)benzamide]
ASMS ratio (%) n = 1 [1]: 12.4% | ASMS ratio (%) n = 2 [1]: −0.3%

CCOc1cccc(-c2cc(CN3CCN(c4ccc(C(=O)NS(=O)(=O)CC56CC7CC(CC(C7)C5)C6)nn4)CC3)cc(OC(C)C)c2)c1 [B2A083-01, N-(1-Adamantylmethylsulfonyl)-6-[4-[[3-(3-ethoxyphenyl)-5-propan-2-yloxyphenyl]methyl]piperazin-1-yl]pyridazine-3-carboxamide]
ASMS ratio (%) n = 1 (AS-MS, mixture library, Bcl-2): 10.3% | ASMS ratio (%) n = 2 (AS-MS, mixture library, Bcl-2): 0.0%

CCOc1cncc(C#Cc2ccccc2C(=O)N2CCN(c3ccc(C(=O)NCC45CC6CC(CC(C6)C4)C5)nn3)CC2)c1 [B1A008-01, N-(1-Adamantylmethyl)-6-[4-[2-[2-(5-ethoxypyridin-3-yl)ethynyl]benzoyl]piperazin-1-yl]pyridazine-3-carboxamide]
ASMS ratio (%) n = 1 [2]: 3.0% | ASMS ratio (%) n = 2 [2]: 0.0%

CCOc1cncc(C#Cc2ccccc2C(=O)N2CCN(c3ccc(C(=O)Nc4ccc(OC)cc4)cc3)CC2)c1 [B1O030-01, 4-[4-[2-[2-(5-Ethoxypyridin-3-yl)ethynyl]benzoyl]piperazin-1-yl]-N-(4-methoxyphenyl)benzamide]
ASMS ratio (%) n = 1 [1]: 1.8% | ASMS ratio (%) n = 2 [1]: −2.0%

CCOc1cccc(-c2cc(CN3CCN(c4ccc(C(=O)NCC56CC7CC(CC(C7)C5)C6)cc4)CC3)cc(OC(F)(F)F)c2)c1 [B1A063-01, N-(1-Adamantylmethyl)-4-[4-[[3-(3-ethoxyphenyl)-5-(trifluoromethoxy)phenyl]methyl]piperazin-1-yl]benzamide]
ASMS ratio (%) n = 1 [2]: −1.0% | ASMS ratio (%) n = 2 [2]: −11.0%

CCOc1cncc(-c2cc(CN3CCN(c4ccc(C(=O)NS(C)(=O)=O)nn4)CC3)cc(OCC)c2)c1 [B2I082-01, 6-[4-[[3-Ethoxy-5-(5-ethoxypyridin-3-yl)phenyl]methyl]piperazin-1-yl]-N-methylsulfonylpyridazine-3-carboxamide]
ASMS ratio (%) (n = 1): 0.0% | ASMS ratio (%) (n = 2): 1.9%

CCOc1cccc(-c2cc(OC)c(CN3CCN(c4ccc(C(=O)N(C)CC56CC7CC(CC(C7)C5)C6)nn4)CC3)c(OC)c2)c1 [B3A085-01, N-(1-Adamantylmethyl)-6-[4-[[4-(3-ethoxyphenyl)-2,6-dimethoxyphenyl]methyl]piperazin-1-yl]-N-methylpyridazine-3-carboxamide]
ASMS ratio (%) n = 1 [1]: 5.3% | ASMS ratio (%) n = 2 [1]: −7.1%

CCOc1cccc(-c2ccc(C(=O)N3CCN(c4ccc(C(=O)Nc5ccc(OC)cc5)cc4)CC3)c3ccccc23)c1 [B1O035-01, 4-[4-[4-(3-Ethoxyphenyl)naphthalene-1-carbonyl]piperazin-1-yl]-N-(4-methoxyphenyl)benzamide]
ASMS ratio (%) n = 1 [1]: 4.3% | ASMS ratio (%) n = 2 [1]: −3.7%

CCOc1cncc(-c2ccc(C(=O)N3CCN(c4ccc(C(=O)NS(C)(=O)=O)cc4)CC3)cc2C)c1 [B2I026-01, 4-[4-[4-(5-Ethoxypyridin-3-yl)-3-methylbenzoyl]piperazin-1-yl]-N-methylsulfonylbenzamide]
ASMS ratio (%) n = 1 (AS-MS, mixture library, Bcl-2): −2.6% | ASMS ratio (%) n = 2 (AS-MS, mixture library, Bcl-2): −0.2%

CCOc1cccc(-c2ccc(CN3CCN(c4ccc(C(=O)NCC56CC7CC(CC(C7)C5)C6)cc4)CC3)cc2C)c1 [B1A047-01, N-(1-Adamantylmethyl)-4-[4-[[4-(3-ethoxyphenyl)-3-methylphenyl]methyl]piperazin-1-yl]benzamide]
ASMS ratio (%) n = 1 [2]: 3.2% | ASMS ratio (%) n = 2 [2]: 2.5%

4-[4-[[3-(5-Ethoxypyridin-3-yl)-5-propan-2-yloxyphenyl]methyl]piperazin-1-yl]-N-propylbenzamide [B1M017-01]
ASMS ratio (%) n = 1 [2]: −0.1% | ASMS ratio (%) n = 2 [2]: 0.3%

CCOc1cccc(-c2ccc(C(C)N3CCN(c4ccc(C(=O)N(C)CC56CC7CC(CC(C7)C5)C6)cc4)CC3)c(F)c2)c1 (stereo not drawn) [B3A099-01, N-(1-Adamantylmethyl)-4-[4-[1-[4-(3-ethoxyphenyl)-2-fluorophenyl]ethyl]piperazin-1-yl]-N-methylbenzamide]
ASMS ratio (%) n = 1 [1]: −2.6% | ASMS ratio (%) n = 2 [1]: 25.2%

CCOc1cncc(-c2ccc(C(=O)N3CCN(c4ccc(C(=O)NS(=O)(=O)CCC(F)(F)F)cc4)CC3)c3ccccc23)c1 [B2N036-01, 4-[4-[4-(5-Ethoxypyridin-3-yl)naphthalene-1-carbonyl]piperazin-1-yl]-N-(3,3,3-trifluoropropylsulfonyl)benzamide]
ASMS ratio (%) (n = 1): 0.0% | ASMS ratio (%) (n = 2): 0.4%

CCOc1cccc(-c2csc(CN3CCN(c4ccc(C(=O)Nc5ccc(OC)cc5)nn4)CC3)c2)c1 [B1O093-01, 6-[4-[[4-(3-Ethoxyphenyl)thiophen-2-yl]methyl]piperazin-1-yl]-N-(4-methoxyphenyl)pyridazine-3-carboxamide]
ASMS ratio (%) n = 1 [1]: 0.0% | ASMS ratio (%) n = 2 [1]: 0.6%

CCOc1cncc(-c2csc(C(=O)N3CCN(c4ccc(C(=O)NS(=O)(=O)c5ccc(NCCSc6ccccc6)c(C(F)(F)F)c5)cc4)CC3)c2)c1 [B2R024-01, 4-[4-[4-(5-Ethoxypyridin-3-yl)thiophene-2-carbonyl]piperazin-1-yl]-N-[4-(2-phenylsulfanylethylamino)-3-(trifluoromethyl)phenyl]sulfonylbenzamide]
ASMS ratio (%) (n = 1): 0.0% | ASMS ratio (%) (n = 2): −1.2%

CCOc1cncc(-c2cc(CN3CCN(c4ccc(C(=O)NS(=O)(=O)C(C)(C)C)cc4)CC3)cc(OC(C)C)c2)c1 [B2L058-01]
ASMS ratio (%) (n = 1): 0.0% | ASMS ratio (%) (n = 2): 0.0%

CCOc1cccc(C#Cc2cc(C(=O)N3CCN(c4ccc(C(=O)NS(C)(=O)=O)cc4)CC3)cc(C(F)(F)F)c2)c1 [B2I041-01, 4-[4-[3-[2-(3-Ethoxyphenyl)ethynyl]-5-(trifluoromethyl)benzoyl]piperazin-1-yl]-N-methylsulfonylbenzamide]
ASMS ratio (%) (n = 1): 0.0% | ASMS ratio (%) (n = 2): 0.0%

CCOc1cccc(-c2ccc(CN3CCN(c4ccc(C(=O)NS(=O)(=O)c5ccc(NCCSc6ccccc6)c([N+](=O)[O-])c5)cc4)CC3)c(CC)c2)c1 [B2Q049-01, 4-[4-[[4-(3-Ethoxyphenyl)-2-ethylphenyl]methyl]piperazin-1-yl]-N-[3-nitro-4-(2-phenylsulfanylethylamino)phenyl]sulfonylbenzamide]
ASMS ratio (%) n = 1 (AS-MS, mixture library, Bcl-2): −2.4% | ASMS ratio (%) n = 2 (AS-MS, mixture library, Bcl-2): −4.8%

4-[4-[5-[2-(3-Ethoxyphenyl)ethynyl]pyridine-3-carbonyl]piperazin-1-yl]-N-propylbenzamide [B1M002-01]
ASMS ratio (%) n = 1 [2]: −0.7% | ASMS ratio (%) n = 2 [2]: −1.5%

CCOc1cccc(-c2cc(CN3CCN(c4ccc(C(=O)NS(=O)(=O)c5ccc(NCCSc6ccccc6)c(C(F)(F)F)c5)nn4)CC3)cc(C(F)(F)F)c2)c1 [B2R087-01, 6-[4-[[3-(3-Ethoxyphenyl)-5-(trifluoromethyl)phenyl]methyl]piperazin-1-yl]-N-[4-(2-phenylsulfanylethylamino)-3-(trifluoromethyl)phenyl]sulfonylpyridazine-3-carboxamide]
ASMS ratio (%) (n = 1): 3.8% | ASMS ratio (%) (n = 2): 7.1%

CCOc1cncc(-c2ccc(C(=O)N3CCN(c4ccc(C(=O)NCC56CC7CC(CC(C7)C5)C6)cc4)CC3)cc2F)c1 [B1A028-01, N-(1-Adamantylmethyl)-4-[4-[4-(5-ethoxypyridin-3-yl)-3-fluorobenzoyl]piperazin-1-yl]benzamide]
ASMS ratio (%) n = 1 [2]: −1.6% | ASMS ratio (%) n = 2 [2]: −4.7%

CCOc1cncc(-c2ccc(CN3CCN(c4ccc(C(=O)NS(=O)(=O)CC56CC7CC(CC(C7)C5)C6)nn4)CC3)cc2F)c1 [B2A078-01, N-(1-Adamantylmethylsulfonyl)-6-[4-[[4-(5-ethoxypyridin-3-yl)-3-fluorophenyl]methyl]piperazin-1-yl]pyridazine-3-carboxamide]
ASMS ratio (%) n = 1 (AS-MS, mixture library, Bcl-2): 15.2% | ASMS ratio (%) n = 2 (AS-MS, mixture library, Bcl-2): 9.3%

CCOc1cccc(-c2ccc(C(C)N3CCN(c4ccc(C(=O)NS(=O)(=O)c5ccc(NCCSc6ccccc6)c(C(F)(F)F)c5)cc4)CC3)cc2)c1 (stereo not drawn) [B2R097-01, 4-[4-[1-[4-(3-Ethoxyphenyl)phenyl]ethyl]piperazin-1-yl]-N-[4-(2-phenylsulfanylethylamino)-3-(trifluoromethyl)phenyl]sulfonylbenzamide]
ASMS ratio (%) (n = 1): 6.6% | ASMS ratio (%) (n = 2): −7.8%

CCOc1cccc(-c2ccccc2CN2CCN(c3ccc(C(=O)N(CC)CC)nn3)CC2)c1 [B4J071-01]
ASMS ratio (%) n = 1 (AS-MS, mixture library, Bcl-2): 0.4% | ASMS ratio (%) n = 2 (AS-MS, mixture library, Bcl-2): −0.5%

CCOc1cccc(-c2cc(CN3CCN(c4ccc(C(=O)NS(=O)(=O)CC56CC7CC(CC(C7)C5)C6)cc4)CC3)cc(OCC)c2)c1 [B2A055-01, N-(1-Adamantylmethylsulfonyl)-4-[4-[[3-ethoxy-5-(3-ethoxyphenyl)phenyl]methyl]piperazin-1-yl]benzamide]
ASMS ratio (%) n = 1 (AS-MS, mixture library, Bcl-2): 5.8% | ASMS ratio (%) n = 2 (AS-MS, mixture library, Bcl-2): −7.3%

CCOc1cncc(-c2cc(OC)c(CN3CCN(c4ccc(C(=O)NS(C)(=O)=O)cc4)CC3)c(OC)c2)c1 [B2I060-01]
ASMS ratio (%) (n = 1): 0.0% | ASMS ratio (%) (n = 2): 0.0%

CCOc1cccc(-c2cc(CN3CCN(c4ccc(C(=O)NS(C)(=O)=O)nn4)CC3)cc(OCC)c2)c1 [B2I081-01]
ASMS ratio (%) (n = 1): 0.0% | ASMS ratio (%) (n = 2): 0.0%
